In brackets after ≈: the same amount, converted by molar mass. Read-outs that look alike come from different tables or passages of the source.
How the values were obtained:
[1] = Cytotoxicity in HCV-1a replicon cells, Promega CellTiter-Glo cell viability assay
[2] = Cytotoxicity in G-luc replicon cells, Promega CellTiter-Glo cell viability assay; settings: G-luc (GLuc-1) HCV genotype 1a H-77 replicon cells
[3] = system: genotype 1a H-77 replicon; experiment: HCV genotype 1a replicon potency in GLuc-1 cells, bioluminescence; type: cell-based; settings: Hepatitis C virus; 72 hours, average of two or more independent experiments ± std. dev; read-out: Stable replicon cell lines EC50 (μM) Genotype 1a (Gluc-1)
[4] = system: infectious genotype 2a virus (a J6/JFH-1 chimera); experiment: JFH-1 HCV-2a virus assay in Lunet-CD81 cells, NS3 expression readout; type: cell-based; settings: Hepatitis C virus, 72 h, read-out: Genotype 2a Virus (Lunet-CD81) EC50 (μM)
genotype 1b replicon = experiment: HCV genotype 1b replicon potency in R-luc cells, bioluminescence; type: cell-based; settings: Hepatitis C virus; 72 hours, average of two or more independent experiments ± std. dev; read-out: Stable replicon cell lines EC50 (μM) Genotype1b (R-luc)
[5] = system: genotype 1a H-77 replicon; experiment: HCV-1a replicon potency in RLuc-1 cells, bioluminescence; type: cell-based; settings: for HCV-1a Replicon Selectivity Index: CC50/EC50, genotype 1a replicon
RLuc-1 cells = experiment: Cytotoxicity in HCV-1a replicon cells, Promega CellTiter-Glo cell viability assay; settings: read-out: HCV-1a Replicon CC50; replicon cells, 72 hours, CellTiter-Glo
in vitro [6] = settings: human
hRV-9 = experiment: Rhinovirus type 9 antiviral assay in Hela Rh cells, MTS readout; type: cell-based, Human rhinovirus; settings: Human rhinovirus sp., HRV9, HeLa Rh, Hela Rh cells; read-out: hRV-9 EC50
hRV-2 = experiment: Rhinovirus type 2 antiviral assay in Hela Rh cells, MTS readout; type: cell-based, Human rhinovirus; settings: Rhinovirus A, HRV2, HeLa Rh, Hela Rh cells; read-out: hRV-2 EC50
hRV-85 = experiment: Rhinovirus type 85 antiviral assay in Hela Rh cells, MTS readout; type: cell-based, Human rhinovirus; settings: Human rhinovirus sp., HRV85, HeLa Rh, Hela Rh cells; read-out: hRV-85 EC50
poliovirus (PV type 3) = experiment: microbe, parasite or virus in culture; type: cell-based; settings: Enterovirus C, read-out: PV-3 EC50
hRV-45 = experiment: Rhinovirus type 45 antiviral assay in Hela Rh cells, MTS readout; type: cell-based, Human rhinovirus; settings: Human rhinovirus sp., HRV45, HeLa Rh, Hela Rh cells; read-out: hRV-45 EC50
hRV-29 = experiment: Rhinovirus type 29 antiviral assay in Hela Rh cells, MTS readout; type: cell-based; settings: Human rhinovirus sp., HRV29, HeLa Rh, Hela Rh cells; read-out: hRV-29 EC50
hRV-86 = experiment: Rhinovirus type 86 antiviral assay in Hela Rh cells, MTS readout; type: cell-based, Human rhinovirus; settings: Human rhinovirus sp., HRV86, HeLa Rh, Hela Rh cells; read-out: hRV-86 EC50
HIV-2 strain (ROD) = experiment: Inhibition of replication of HIV-2 (ROD strain) in MT-4 cells, MTT assay; type: cell-based; settings: Human immunodeficiency virus 2, MT4, 120 h; MT-4 cells, MTT assay, five days after infection, 50% protection from cytopathic effect; read-out: EC50 (μM) HIV-2 (ROD)
hRV-42 = experiment: Rhinovirus type 42 antiviral assay in Hela Rh cells, MTS readout; type: cell-based, Human rhinovirus; settings: Human rhinovirus sp., HRV42, HeLa Rh, Hela Rh cells; read-out: hRV-42 EC50
hRV-70 = experiment: Rhinovirus type 70 antiviral assay in Hela Rh cells, MTS readout; type: cell-based, Human rhinovirus; settings: Human rhinovirus sp., HRV70, HeLa Rh, Hela Rh cells; read-out: hRV-70 EC50
hRV-14 = experiment: Rhinovirus type 14 antiviral assay in Hela Rh cells, MTS readout; type: cell-based, Human rhinovirus; settings: Rhinovirus B, HRV14, HeLa Rh, Hela Rh cells; read-out: hRV-14 EC50
HIV-1 strain IIIB = experiment: Inhibition of replication of HIV-1 (IIIB strain) in MT-4 cells, MTT assay; type: cell-based; settings: Human immunodeficiency virus 1, IIIB, MT4, 120 h; MT-4 cells, MTT assay, five days after infection, 50% protection from cytopathic effect; read-out: EC50 (μM) HIV-1 (IIIB)
in vitro [7] = settings: African green monkey, PV CC50
poliovirus (PV type 1) = experiment: microbe, parasite or virus in culture; type: cell-based; settings: Enterovirus C, read-out: PV-1 EC50
hRV-72 = experiment: Rhinovirus type 72 antiviral assay in Hela Rh cells, MTS readout; type: cell-based, Human rhinovirus; settings: Human rhinovirus sp., HRV72, HeLa Rh, Hela Rh cells; read-out: hRV-72 EC50
hRV-39 = experiment: Rhinovirus type 39 antiviral assay in Hela Rh cells, MTS readout; type: cell-based, Human rhinovirus; settings: Human rhinovirus sp., HRV39, HeLa Rh, Hela Rh cells; read-out: hRV-39 EC50
hRV-15 = experiment: Rhinovirus type 15 antiviral assay in Hela Rh cells, MTS readout; type: cell-based, Human rhinovirus; settings: Human rhinovirus sp., HRV15, HeLa Rh, Hela Rh cells; read-out: hRV-15 EC50
[8] = Cytostatic/cytotoxic effect in Hela Rh cells (rhinovirus methodology, MTS); settings: human, CC50, Hela Rh cells
poliovirus (PV type 2) = experiment: microbe, parasite or virus in culture; type: cell-based; settings: Enterovirus C, read-out: PV-2 EC50
hRV-41 = experiment: Rhinovirus type 41 antiviral assay in Hela Rh cells, MTS readout; type: cell-based, Human rhinovirus; settings: Human rhinovirus sp., HRV41, HeLa Rh, Hela Rh cells; read-out: hRV-41 EC50
hRV-63 = experiment: Rhinovirus type 63 antiviral assay in Hela Rh cells, MTS readout; type: cell-based, Human rhinovirus; settings: Human rhinovirus sp., HRV63, HeLa Rh, Hela Rh cells; read-out: hRV-63 EC50
in vitro [9] = settings: human, PV CC50
[10] = Hepatitis C virus, 72 h, read-out: HCV-1a Replicon EC50 (μM)

`Nc1nc(N2CCN(C(=O)COc3ccc(Cl)cc3)CC2)c2nc(C3CC3)[nH]c2n1` [Example 398, 1-(4-(2-amino-8-cyclopropyl-9H-purin-6-yl)piperazin-1-yl)-2-(4-chlorophenoxy)ethanone] showed a CC50 at 72 h [1] of over 44.4 µM, a CC50 at 72 h [2] of over 50 µM and an EC50 [3] of 0.274 ± 0.04 µM. The EC50 [4] was 29 µM, the EC50 (genotype 1b replicon) was 0.192 ± 0.008 µM and the “HCV-1a Replicon Selectivity Index” value [5] was over 143. It also gave an EC50 [5, 10] of 0.3 µM.
`Cc1nc2c(N3CCN(C(=O)COc4ccc(Cl)cc4)CC3)nc(N)nc2[nH]1` [Example 400, 1-(4-(2-amino-8-methyl-9H-purin-6-yl)piperazin-1-yl)-2-(4-chlorophenoxy)ethanone] gave a CC50 at 72 h [1] of over 44.4 µM, a CC50 at 72 h [2] of over 50 µM and an EC50 [3] of 0.125 ± 0.035 µM. For the same compound, the EC50 [4] was over 50 µM, the EC50 (genotype 1b replicon) was 0.188 ± 0.012 µM and the “HCV-1a Replicon Selectivity Index” value [5] was over 164. The EC50 [5, 10] was 0.3 µM.
In the case of `Nc1nc(NCc2ccccc2)c2cc(-c3ccc(F)cc3)sc2n1` [Example 327, 2-amino-4-N-benzylamino-6-(4-fluorophenyl)-thieno[2,3-d]pyrimidine], the CC50 (RLuc-1 cells) is reported as 23.2 µM and the EC50 ([5]; RLuc-1 cells, 72 hours, bioluminescence, read-out: HCV-1a Replicon EC50) is reported as 38.6 µM.
For `Nc1nc(N2CCN(C(=O)COc3ccc(Br)cc3)CC2)c2nc(CCc3ccc(F)cc3)sc2n1` [Example 52, 1-(4-(5-amino-2-(4-fluorophenethyl)thiazolo[5,4-d]pyrimidin-7-yl)piperazin-1-yl)-2-(4-bromophenoxy)ethanone], the CC50 (in vitro [6]) was 95.7 µM, the EC50 (hRV-9) was over 50 µg/mL and the EC50 (hRV-2) was 15.7 µg/mL (≈ 27.5 µM). The EC50 (hRV-85) was 21.9 µg/mL (≈ 38.4 µM), the CC50 at 72 h [1] was over 44.4 µM and the EC50 (poliovirus (PV type 3); HeLa) was over 50 µg/mL. It also gave an EC50 (poliovirus (PV type 3); Vero) of 0.49 µg/mL (≈ 0.857 µM), an EC50 (hRV-45) of over 50 µg/mL and an EC50 (hRV-29) of over 50 µg/mL. The EC50 (hRV-86) was over 50 µg/mL, the EC50 (HIV-2 strain (ROD)) was over 95.7 µM and the EC50 (hRV-42) was over 50 µg/mL. It also gave an EC50 (hRV-70) of over 50 µg/mL, an EC50 (hRV-14) of over 50 µg/mL and an EC50 (HIV-1 strain IIIB) of 2.71 µM. It also gave a CC50 (in vitro [7]) of 111 µg/mL (≈ 195 µM), an EC50 (poliovirus (PV type 1); HeLa) of 0.39 µg/mL (≈ 0.682 µM) and an EC50 (poliovirus (PV type 1); Vero) of 0.12 µg/mL (≈ 0.21 µM). The EC50 (hRV-72) was over 50 µg/mL, the EC50 (hRV-39) was 30.7 µg/mL (≈ 53.7 µM) and the EC50 (hRV-15) was over 50 µg/mL. For the same compound, the CC50 [8] was over 50 µg/mL, the EC50 (poliovirus (PV type 2); HeLa) was 0.38 µg/mL (≈ 0.665 µM) and the EC50 (poliovirus (PV type 2); Vero) was 0.1 µg/mL (≈ 0.175 µM). For the same compound, the EC50 (hRV-41) was over 50 µg/mL, the EC50 (hRV-63) was over 50 µg/mL and the “HCV-1a Replicon Selectivity Index” value [5] was over 1.3. The EC50 [5, 10] was 35.3 µM and the CC50 (in vitro [9]) was over 50 µg/mL.
Work on `CSc1nc2c(N3CCN(C(=O)COc4ccc(Cl)cc4)CC3)nc(N)nc2n1C` [Example 428, 1-(4-(2-amino-9-methyl-8-(methylthio)-9H-purin-6-yl)piperazin-1-yl)-2-(4-chlorophenoxy)ethanone] yielded a CC50 at 72 h [1] of over 44.4 µM, a CC50 at 72 h [2] of over 50 µM and an EC50 [3] of 0.056 ± 0.002 µM. The EC50 [4] was over 50 µM, the EC50 (genotype 1b replicon) was 0.005 ± 0.002 µM and the “HCV-1a Replicon Selectivity Index” value [5] was over 888. It also gave an EC50 [5, 10] of 0.05 µM.

— patent US9730944B2, “Antiviral activity of novel bicyclic heterocycles” (priority 2010, dated 2017)
